Holding throughout (format): functional
Test [1] has as its system Escherichia coli. Description: Antibacterial activity against Escherichia coli BL21(DE3).
The subject of test [2] is Pseudomonas aeruginosa. Description: Antibacterial activity against Pseudomonas aeruginosa ATCC 27853.
The test system of test [3] is Escherichia coli. Description: Antibacterial activity against Escherichia coli BL21(DE3) expressing Pseudomonas aeruginosa APH(3')-2b.

In ChEMBL document CHEMBL1142160, “Overexpression and initial characterization of the chromosomal aminoglycoside 3'-O-phosphotransferase APH(3')-IIb from Pseudomonas aeruginosa” (2007) one finds MIC data, which are given here for one sequence.

As to GENTAMICIN, the MIC in test [1] was found to be 6 µg/mL; in test [2], 2 µg/mL; in test [3] it was 6 µg/mL.

For orientation: MIC means the least concentration at which growth counts as inhibited. High values mean a need for much substance, low ones inhibition by little substance.
